Experimental data: patent publication US8703768B2, “Nitrogen containing heteroaryl compounds” (Hoffmann-La Roche Inc., priority 2010, dated 2014)

Target: human PDE10A (Homo sapiens (Human), UniProt Q9Y233)
Test: human PDE10A full length Scintillation Proximity Assay (SPA)
Assay type: biochemical
Conditions: 50 nM cGMP and 50 nM [3H]-cGMP, 20 minutes at room temperature; read-out: PDE10A inhibition IC50
How it was run: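 Full-length enzyme incubated with compounds; reaction started with cGMP plus [^3H]-cGMP substrate and run 20 min at room temperature. Stopped with yttrium silicate SPA beads in 18 mM zinc sulphate, 1 h shaking, then scintillation counting; background from enzyme-free wells.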

Sequence of human PDE10A (Q9Y233 other isoform, or with tags, fused parts or gaps): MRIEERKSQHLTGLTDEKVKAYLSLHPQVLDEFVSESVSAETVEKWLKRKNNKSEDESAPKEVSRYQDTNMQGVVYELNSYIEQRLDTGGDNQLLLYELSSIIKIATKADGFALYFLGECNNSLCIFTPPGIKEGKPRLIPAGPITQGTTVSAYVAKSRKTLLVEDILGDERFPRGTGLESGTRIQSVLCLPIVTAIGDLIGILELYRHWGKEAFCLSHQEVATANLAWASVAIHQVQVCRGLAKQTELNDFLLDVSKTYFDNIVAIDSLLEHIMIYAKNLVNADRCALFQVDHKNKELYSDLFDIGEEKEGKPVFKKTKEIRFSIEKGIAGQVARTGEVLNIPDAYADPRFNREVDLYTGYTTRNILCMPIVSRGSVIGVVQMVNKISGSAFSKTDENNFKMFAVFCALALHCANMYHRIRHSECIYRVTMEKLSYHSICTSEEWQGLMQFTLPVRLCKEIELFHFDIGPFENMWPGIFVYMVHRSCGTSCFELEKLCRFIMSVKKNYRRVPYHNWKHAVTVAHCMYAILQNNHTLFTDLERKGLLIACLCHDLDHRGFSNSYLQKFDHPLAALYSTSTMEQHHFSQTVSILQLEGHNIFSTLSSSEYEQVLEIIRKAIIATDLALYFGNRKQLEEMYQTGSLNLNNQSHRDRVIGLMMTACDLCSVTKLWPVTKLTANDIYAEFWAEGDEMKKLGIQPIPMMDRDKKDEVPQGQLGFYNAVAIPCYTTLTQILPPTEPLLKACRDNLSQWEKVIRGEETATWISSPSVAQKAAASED

SMILES | IC50 [nM]
CCN(C)c1cnc(Nc2cncnc2)c(C(=O)Nc2cnn(C)c2C(=O)NC)n1 [Example 311, 6-(Ethyl-methyl-amino)-3-(pyrimidin-5-ylamino)-pyrazine-2-carboxylic acid (1-methyl-5-methylcarbamoyl-1H-pyrazol-4-yl)-amide] | 20.5
CNC(=O)c1cc(F)ccc1NC(=O)c1nc(C2CC2)cnc1Nc1cncnc1 [Example 312, 6-Cyclopropyl-3-(pyrimidin-5-ylamino)-pyrazine-2-carboxylic acid (4-fluoro-2-methylcarbamoyl-phenyl)-amide] | 0.8
CN(C)CCNC(=O)c1c(NC(=O)c2nc(C3CC3)cnc2Nc2cncnc2)cnn1C [Example 313, 6-Cyclopropyl-3-(pyrimidin-5-ylamino)-pyrazine-2-carboxylic acid [5-(2-dimethylamino-ethylcarbamoyl)-1-methyl-1H-pyrazol-4-yl]-amide] | 52
CNC(=O)c1c(NC(=O)c2nc(C3CC3)ncc2Nc2cncnc2)cnn1C [Example 314, 2-Cyclopropyl-5-(pyrimidin-5-ylamino)-pyrimidine-4-carboxylic acid (1-methyl-5-methylcarbamoyl-1H-pyrazol-4-yl)-amide] | 34.3
CN1CC(NC(=O)c2c(NC(=O)c3nc(C4CC4)cnc3Nc3cncnc3)cnn2C)C1 [Example 315, 6-Cyclopropyl-3-(pyrimidin-5-ylamino)-pyrazine-2-carboxylic acid [1-methyl-5-(1-methyl-azetidin-3-ylcarbamoyl)-1H-pyrazol-4-yl]-amide] | 11.1
CN(C)C(=O)c1c(NC(=O)c2nc(C3CC3)cnc2Nc2cncnc2)ccc(F)c1F [Example 316, 6-Cyclopropyl-3-(pyrimidin-5-ylamino)-pyrazine-2-carboxylic acid (2-dimethylcarbamoyl-3,4-difluoro-phenyl)-amide] | 24.1
CNC(=O)c1c(NC(=O)c2nc(C3CC3)cnc2Nc2cncnc2)ccc(F)c1F [Example 317, 6-Cyclopropyl-3-(pyrimidin-5-ylamino)-pyrazine-2-carboxylic acid (3,4-difluoro-2-methylcarbamoyl-phenyl)-amide] | 2.7
CC(C)(O)CNC(=O)c1c(NC(=O)c2nc(C3CC3)cnc2Nc2cncnc2)ccc(F)c1F [Example 318, 6-Cyclopropyl-3-(pyrimidin-5-ylamino)-pyrazine-2-carboxylic acid [3,4-difluoro-2-(2-hydroxy-2-methyl-propylcarbamoyl)-phenyl]-amide] | 4.6
O=C(Nc1ccc(F)c(F)c1C(=O)N1CCC1)c1nc(C2CC2)cnc1Nc1cncnc1 [Example 319, 6-Cyclopropyl-3-(pyrimidin-5-ylamino)-pyrazine-2-carboxylic acid [2-(azetidine-1-carbonyl)-3,4-difluoro-phenyl]-amide] | 15.5
O=C(Nc1c(C(=O)N2CCC2)ccc(F)c1F)c1nc(C2CC2)cnc1Nc1cncnc1 [Example 320, 6-Cyclopropyl-3-(pyrimidin-5-ylamino)-pyrazine-2-carboxylic acid [6-(azetidine-1-carbonyl)-2,3-difluoro-phenyl]-amide] | 86.3
CCOC(=O)CCc1ccc(NC(=O)c2nc(C3CC3)cnc2Nc2cncnc2)c(C(=O)NC)c1 [Example 321, 3-(4-{[6-Cyclopropyl-3-(pyrimidin-5-ylamino)-pyrazine-2-carbonyl]-amino}-3-methylcarbamoyl-phenyl)-propionic acid ethyl ester] | 0.6
CNC(=O)COc1ccc(NC(=O)c2nc(C3CC3)cnc2Nc2cncnc2)c(C(=O)NC)c1 [Example 322, 6-Cyclopropyl-3-(pyrimidin-5-ylamino)-pyrazine-2-carboxylic acid (2-methylcarbamoyl-4-methylcarbamoylmethoxy-phenyl)-amide] | 1.7
O=C(Nc1cc(F)cc(F)c1C(=O)N1CCC1)c1nc(C2CC2)cnc1Nc1cncnc1 [Example 323, 6-Cyclopropyl-3-(pyrimidin-5-ylamino)-pyrazine-2-carboxylic acid [2-(azetidine-1-carbonyl)-3,5-difluoro-phenyl]-amide] | 35.9
CC(C)(O)CNC(=O)c1c(F)cc(F)cc1NC(=O)c1nc(C2CC2)cnc1Nc1cncnc1 [Example 324, 6-Cyclopropyl-3-(pyrimidin-5-ylamino)-pyrazine-2-carboxylic acid [3,5-difluoro-2-(2-hydroxy-2-methyl-propylcarbamoyl)-phenyl]-amide] | 1.1

Second part, the compound after the results:

IC50 [nM] | SMILES
335 | CN(C)C(=O)c1ccc(F)c(F)c1NC(=O)c1nc(C2CC2)cnc1Nc1cncnc1 [Example 325, 6-Cyclopropyl-3-(pyrimidin-5-ylamino)-pyrazine-2-carboxylic acid (6-dimethylcarbamoyl-2,3-difluoro-phenyl)-amide]
2.7 | CC(C)(O)CNC(=O)c1ccc(F)c(F)c1NC(=O)c1nc(C2CC2)cnc1Nc1cncnc1 [Example 326, 6-Cyclopropyl-3-(pyrimidin-5-ylamino)-pyrazine-2-carboxylic acid [2,3-difluoro-6-(2-hydroxy-2-methyl-propylcarbamoyl)-phenyl]-amide]
0.4 | CNC(=O)c1cc(CCC(=O)O)ccc1NC(=O)c1nc(C2CC2)cnc1Nc1cncnc1 [Example 328, 3-(4-{[6-Cyclopropyl-3-(pyrimidin-5-ylamino)-pyrazine-2-carbonyl]-amino}-3-methylcarbamoyl-phenyl)-propionic acid]
2.9 | CC(C)c1ncc(Nc2cncnc2)c(C(=O)Nc2cccnc2C(=O)NCC(C)(C)O)n1 [Example 329, 2-Isopropyl-5-(pyrimidin-5-ylamino)-pyrimidine-4-carboxylic acid [2-(2-hydroxy-2-methyl-propylcarbamoyl)-pyridin-3-yl]-amide]
1.1 | CC(C)(O)CNC(=O)c1ncccc1NC(=O)c1nc(C(C)(C)C)ncc1Nc1cncnc1 [Example 330, 2-tert-Butyl-5-(pyrimidin-5-ylamino)-pyrimidine-4-carboxylic acid [2-(2-hydroxy-2-methyl-propylcarbamoyl)-pyridin-3-yl]-amide]
3.1 | CC(C)Cc1ncc(Nc2cncnc2)c(C(=O)Nc2cccnc2C(=O)NCC(C)(C)O)n1 [Example 331, 2-Isobutyl-5-(pyrimidin-5-ylamino)-pyrimidine-4-carboxylic acid [2-(2-hydroxy-2-methyl-propylcarbamoyl)-pyridin-3-yl]-amide]
12.8 | CNC(=O)c1c(NC(=O)c2nc(CC(C)C)ncc2Nc2cncnc2)cnn1C [Example 332, 2-Isobutyl-5-(pyrimidin-5-ylamino)-pyrimidine-4-carboxylic acid (1-methyl-5-methylcarbamoyl-1H-pyrazol-4-yl)-amide]
691 | CNC(=O)c1c(NC(=O)c2nc(N3CCN(C)CC3)cnc2Nc2cncnc2)cnn1C [Example 333, 4-Methyl-5′-(pyrimidin-5-ylamino)-3,4,5,6-tetrahydro-2H-[1,2]bipyrazinyl-6′-carboxylic acid (1-methyl-5-methylcarbamoyl-1H-pyrazol-4-yl)-amide]
2.2 | CON(C)C(=O)c1c(NC(=O)c2nc(C3CC3)cnc2Nc2cncnc2)cnn1C [Example 334, 6-Cyclopropyl-3-(pyrimidin-5-ylamino)-pyrazine-2-carboxylic acid [5-(methoxy-methyl-carbamoyl)-1-methyl-1H-pyrazol-4-yl]-amide]
0.8 | Cn1ncc(NC(=O)c2nc(C3CC3)cnc2Nc2cncnc2)c1C(=O)N1CCCO1 [Example 335, 6-Cyclopropyl-3-(pyrimidin-5-ylamino)-pyrazine-2-carboxylic acid [5-(isoxazolidine-2-carbonyl)-1-methyl-1H-pyrazol-4-yl]-amide]
5.3 | Cn1ncc(NC(=O)c2nc(C3CC3)cnc2Nc2cncnc2)c1C(=O)NC1CCCC1O (stereo not drawn) [Example 336, 6-Cyclopropyl-3-(pyrimidin-5-ylamino)-pyrazine-2-carboxylic acid [5-(2-hydroxy-cyclopentylcarbamoyl)-1-methyl-1H-pyrazol-4-yl]-amide]
126 | CNC(=O)c1c(NC(=O)c2nc(OCC(F)(F)F)ncc2Nc2cncnc2)cnn1C [Example 337, 5-(Pyrimidin-5-ylamino)-2-(2,2,2-trifluoro-ethoxy)-pyrimidine-4-carboxylic acid (1-methyl-5-methylcarbamoyl-1H-pyrazol-4-yl)-amide]
2.1 | CNC(=O)c1cc(OCC(C)(C)O)ccc1NC(=O)c1nc(C2CC2)cnc1Nc1cncnc1 [Example 338, 6-Cyclopropyl-3-(pyrimidin-5-ylamino)-pyrazine-2-carboxylic acid [4-(2-hydroxy-2-methyl-propoxy)-2-methylcarbamoyl-phenyl]-amide]
49.3 | CNC(=O)c1c(NC(=O)c2nc(OCC(F)(F)F)cnc2Nc2cncnc2)cnn1C [Example 339, 3-(Pyrimidin-5-ylamino)-6-(2,2,2-trifluoro-ethoxy)-pyrazine-2-carboxylic acid (1-methyl-5-methylcarbamoyl-1H-pyrazol-4-yl)-amide]
250 | CNC(=O)c1c(NC(=O)c2nc(C(C)(C)O)ncc2Nc2cncnc2)cnn1C [Example 340, 2-(1-Hydroxy-1-methyl-ethyl)-5-(pyrimidin-5-ylamino)-pyrimidine-4-carboxylic acid (1-methyl-5-methylcarbamoyl-1H-pyrazol-4-yl)-amide]
28 | CNC(=O)c1c(NC(=O)c2nc(C(C)(C)O)cnc2Nc2cncnc2)cnn1C [Example 341, 6-(1-Hydroxy-1-methyl-ethyl)-3-(pyrimidin-5-ylamino)-pyrazine-2-carboxylic acid (1-methyl-5-methylcarbamoyl-1H-pyrazol-4-yl)-amide]
